Reference: ChEMBL document CHEMBL5036320, “Discovery of Icenticaftor (QBW251), a Cystic Fibrosis Transmembrane Conductance Regulator Potentiator with Clinical Efficacy in Cystic Fibrosis and Chronic Obstructive Pulmonary Disease” (J Med Chem, 2021)
pEC50: −log10 of the molar value. Converted amounts (≈) assume the structure as drawn.

Experiments:
[1] = system: Cystic fibrosis transmembrane conductance regulator (Homo sapiens), P13569 [F508del]; experiment: Potentiation of CFTR F508del mutant (unknown origin) expressed in CHO cells assessed as chloride transport by measuring membrane potential incubated for 5 to 30 mins in presence of forskolin by Quattro assay relative to PG-01; type: cell-based; set-up: concentration or dose not given beside the values; conditions: time 5-30 min
[2] = molecular target: T1, Cystic fibrosis transmembrane conductance regulator (Homo sapiens, UniProt P13569, F508DEL); experiment: Potentiation of CFTR F508del mutant (unknown origin) expressed in CHO cells assessed as chloride transport by measuring membrane potential incubated for 5 to 30 mins in presence of forskolin by Quattro assay; type: cell-based
[3] = Solubility of the compound at pH 6.8; type: physicochemical; conditions: buffer
[4] = molecular target: T2, Cystic fibrosis transmembrane conductance regulator (Homo sapiens, UniProt P13569); experiment: Potentiation of wild-type CFTR (unknown origin) expressed in FRT cells assessed as chloride transport by measuring membrane potential in presence of forskolin relative to PG-01; type: cell-based; conditions: filed as activator
Target sequence in this assay (P13569 whole entry, looked up): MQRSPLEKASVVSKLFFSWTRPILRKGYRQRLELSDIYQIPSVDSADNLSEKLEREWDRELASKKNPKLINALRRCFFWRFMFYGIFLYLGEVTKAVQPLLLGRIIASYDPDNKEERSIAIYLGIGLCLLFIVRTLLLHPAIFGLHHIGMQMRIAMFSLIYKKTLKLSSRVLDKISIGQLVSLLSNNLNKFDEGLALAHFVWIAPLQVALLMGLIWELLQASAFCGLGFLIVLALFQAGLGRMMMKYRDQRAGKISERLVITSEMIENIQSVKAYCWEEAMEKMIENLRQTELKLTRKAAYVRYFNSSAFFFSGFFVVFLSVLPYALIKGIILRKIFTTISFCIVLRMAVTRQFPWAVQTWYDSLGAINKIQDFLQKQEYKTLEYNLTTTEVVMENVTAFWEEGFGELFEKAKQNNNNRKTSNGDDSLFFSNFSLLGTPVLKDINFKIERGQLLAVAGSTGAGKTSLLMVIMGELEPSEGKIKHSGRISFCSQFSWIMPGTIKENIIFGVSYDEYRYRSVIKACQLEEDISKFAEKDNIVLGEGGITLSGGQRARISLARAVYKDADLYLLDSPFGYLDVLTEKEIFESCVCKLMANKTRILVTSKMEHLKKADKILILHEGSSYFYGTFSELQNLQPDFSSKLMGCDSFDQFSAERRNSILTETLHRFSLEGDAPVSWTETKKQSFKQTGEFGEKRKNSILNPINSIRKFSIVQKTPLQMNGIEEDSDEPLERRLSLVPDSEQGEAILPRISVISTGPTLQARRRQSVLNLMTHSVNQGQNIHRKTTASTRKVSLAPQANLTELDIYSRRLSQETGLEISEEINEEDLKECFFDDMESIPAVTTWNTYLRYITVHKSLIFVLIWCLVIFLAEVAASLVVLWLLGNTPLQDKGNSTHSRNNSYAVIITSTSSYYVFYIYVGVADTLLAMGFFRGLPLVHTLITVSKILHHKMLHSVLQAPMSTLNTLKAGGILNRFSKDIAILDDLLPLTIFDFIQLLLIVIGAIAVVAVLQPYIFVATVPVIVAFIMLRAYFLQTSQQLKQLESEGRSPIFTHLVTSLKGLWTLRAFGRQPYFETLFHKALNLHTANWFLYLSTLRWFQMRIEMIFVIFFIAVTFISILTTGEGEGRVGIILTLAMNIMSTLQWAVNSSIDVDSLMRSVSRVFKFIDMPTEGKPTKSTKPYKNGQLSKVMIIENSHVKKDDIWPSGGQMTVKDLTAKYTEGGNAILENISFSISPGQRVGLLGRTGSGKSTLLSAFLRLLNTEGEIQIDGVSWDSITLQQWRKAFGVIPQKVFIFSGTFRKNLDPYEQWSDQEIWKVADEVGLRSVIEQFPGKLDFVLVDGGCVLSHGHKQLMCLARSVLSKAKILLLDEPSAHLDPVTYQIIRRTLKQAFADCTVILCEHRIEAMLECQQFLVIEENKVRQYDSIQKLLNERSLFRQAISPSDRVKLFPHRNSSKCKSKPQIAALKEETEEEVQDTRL

[5] = system: Cystic fibrosis transmembrane conductance regulator (Homo sapiens), P13569 [F508del]; experiment: Potentiation of CFTR F508del mutant (unknown origin) expressed in CHO cells assessed as chloride transport by measuring membrane potential preincubated for 5 mins followed by forskolin addition by FLIPR assay relative to PG-01; type: cell-based; conditions: filed as activator
[6] = system: Cystic fibrosis transmembrane conductance regulator (Homo sapiens), P13569 [F508del]; experiment: Potentiation of CFTR F508del mutant (unknown origin) expressed in FRT cells assessed as chloride transport by measuring membrane potential in presence of forskolin relative to PG-01; type: cell-based; conditions: filed as activator
[7] = molecular target: T1, Cystic fibrosis transmembrane conductance regulator; experiment: Potentiation of CFTR F508del mutant (unknown origin) expressed in CHO cells assessed as chloride transport by measuring membrane potential preincubated for 5 mins followed by forskolin addition by FLIPR assay; type: cell-based
[8] = molecular target: T1, Cystic fibrosis transmembrane conductance regulator; experiment: Potentiation of CFTR F508del mutant (unknown origin) expressed in FRT cells assessed as chloride transport by measuring membrane potential in presence of forskolin; type: cell-based
[9] = Oral bioavailability in Sprague-Dawley rat at 5 mg/kg measured upto 48 hrs by LC-MS/MS analysis; type: ADME, organism-based; conditions: in vivo
[10] = Plasma Protein binding in Sprague-Dawley rat at 5 uM incubated for 4 hrs by rapid equilibrium dialysis; type: ADME, cell-free; conditions: read-out: PPB (converted)
[11] = Volume of distribution at steady state in Sprague-Dawley rat at 5 mg/kg, po or 0.5 mg/kg, iv measured upto 48 hrs by LC-MS/MS analysis; type: ADME, organism-based; conditions: in vivo, read-out: Vdss
[12] = molecular target: T2, Cystic fibrosis transmembrane conductance regulator; experiment: Potentiation of wild-type CFTR (unknown origin) expressed in FRT cells assessed as chloride transport by measuring membrane potential in presence of forskolin; type: cell-based
Target sequence in this assay (P13569 whole entry): as the sequence (P13569 whole entry, looked up) above

[13] = Clearance in Sprague-Dawley rat at 5 mg/kg, po or 0.5 mg/kg, iv measured upto 48 hrs by LC-MS/MS analysis; type: ADME, organism-based; conditions: in vivo
[14] = Mean residence time in Sprague-Dawley rat at 5 mg/kg, po or 0.5 mg/kg, iv measured upto 48 hrs by LC-MS/MS analysis; type: ADME, organism-based; conditions: in vivo
[15] = Volume of distribution in Sprague-Dawley rat at 3 mg/kg, po and 1 mg/kg, iv measured upto 48 hrs by LC-MS/MS analysis; type: ADME, organism-based; conditions: in vivo
[16] = Unbound Cmax in Sprague-Dawley rat at 3 mg/kg, po and 1 mg/kg, iv measured upto 48 hrs by LC-MS/MS analysis; type: ADME, organism-based; conditions: in vivo
[17] = Clearance in Sprague-Dawley rat at 3 mg/kg, po and 1 mg/kg, iv measured upto 48 hrs by LC MS/MS analysis; type: ADME, organism-based; conditions: in vivo
[18] = Plasma Protein binding in human incubated for 4 hrs by equilibrium dialysis method; type: ADME, cell-free; conditions: 4 h
[19] = Oral bioavailability in Sprague-Dawley rat at 3 mg/kg measured upto 48 hrs by LC-MS/MS analysis; type: ADME, organism-based; conditions: in vivo
[20] = Mean residence time in Sprague-Dawley rat at 3 mg/kg, po and 1 mg/kg, iv measured upto 48 hrs by LC-MS/MS analysis; type: ADME, organism-based; conditions: in vivo
[21] = Cmax in Sprague-Dawley rat at 3 mg/kg, po and 1 mg/kg, iv measured upto 48 hrs by LC-MS/MS analysis; type: ADME, organism-based; set-up: dose 3 mg/kg, time <=48; conditions: in vivo

T1 sequence (P13569 as listed by the source): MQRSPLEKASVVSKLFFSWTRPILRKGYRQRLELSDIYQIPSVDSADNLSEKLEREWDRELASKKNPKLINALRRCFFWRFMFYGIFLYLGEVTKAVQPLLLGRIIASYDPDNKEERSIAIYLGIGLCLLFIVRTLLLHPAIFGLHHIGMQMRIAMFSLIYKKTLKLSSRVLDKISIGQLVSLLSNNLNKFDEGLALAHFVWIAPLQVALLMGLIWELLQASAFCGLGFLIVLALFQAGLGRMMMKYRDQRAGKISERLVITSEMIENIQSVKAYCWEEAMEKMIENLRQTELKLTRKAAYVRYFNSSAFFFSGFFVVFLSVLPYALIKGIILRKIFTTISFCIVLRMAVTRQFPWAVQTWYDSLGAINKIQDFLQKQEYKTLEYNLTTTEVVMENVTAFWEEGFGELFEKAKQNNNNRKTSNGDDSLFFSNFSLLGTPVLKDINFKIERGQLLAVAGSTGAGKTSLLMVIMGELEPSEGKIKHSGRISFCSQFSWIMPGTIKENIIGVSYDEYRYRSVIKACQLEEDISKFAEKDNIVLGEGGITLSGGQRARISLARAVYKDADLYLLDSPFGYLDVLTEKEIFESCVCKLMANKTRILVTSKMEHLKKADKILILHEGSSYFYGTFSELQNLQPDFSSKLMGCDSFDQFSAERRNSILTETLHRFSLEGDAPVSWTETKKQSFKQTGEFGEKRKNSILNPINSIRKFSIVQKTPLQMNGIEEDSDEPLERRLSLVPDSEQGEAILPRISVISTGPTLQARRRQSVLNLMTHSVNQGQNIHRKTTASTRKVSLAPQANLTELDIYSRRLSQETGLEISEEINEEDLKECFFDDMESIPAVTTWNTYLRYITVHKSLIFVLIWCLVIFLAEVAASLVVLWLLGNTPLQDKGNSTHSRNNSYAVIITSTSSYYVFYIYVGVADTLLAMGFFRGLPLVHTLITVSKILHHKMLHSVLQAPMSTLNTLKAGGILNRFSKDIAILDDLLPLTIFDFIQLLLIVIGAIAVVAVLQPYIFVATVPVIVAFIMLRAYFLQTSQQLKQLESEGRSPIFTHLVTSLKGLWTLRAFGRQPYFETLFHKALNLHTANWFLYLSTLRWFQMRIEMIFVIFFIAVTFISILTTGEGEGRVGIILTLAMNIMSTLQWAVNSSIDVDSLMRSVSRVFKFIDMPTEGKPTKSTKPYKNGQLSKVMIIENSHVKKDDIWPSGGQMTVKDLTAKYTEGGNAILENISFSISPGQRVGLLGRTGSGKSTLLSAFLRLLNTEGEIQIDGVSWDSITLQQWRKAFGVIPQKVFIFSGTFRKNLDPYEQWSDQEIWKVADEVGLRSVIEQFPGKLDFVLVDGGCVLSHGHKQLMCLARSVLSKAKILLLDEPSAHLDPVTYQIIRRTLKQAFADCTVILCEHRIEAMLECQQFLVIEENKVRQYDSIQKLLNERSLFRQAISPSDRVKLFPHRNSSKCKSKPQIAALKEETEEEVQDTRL
Chain of Cystic fibrosis transmembrane conductance regulator (Homo sapiens), P13569 [F508del] (P13569 as listed by the source): as above

Row | Compound | Activity ([1]; filed as activator) [%] | pEC50 [2] | solubility [3] [µg/mL] | other results
1 | CNc1nc(C(=O)NCC(C)(O)C(F)(F)F)c(N)cc1C(F)(F)F (stereo in doubt; 30a) | 91 | – | – | –
2 | Nc1cc(C(F)(F)F)c(Br)nc1C(=O)NCC(O)(C(F)(F)F)C(F)(F)F | 117 | 8.00 | 3 (≈ 6.46 µM) | –
3 | CN(C)c1nc(C(=O)NCC(C)(O)C(F)(F)F)c(N)cc1C(F)(F)F (stereo in doubt; 31a) | 89 | – | – | –
4 | COC(=O)c1ccc(C(F)(F)F)cc1N | 72 | 5.42 | < 1 | –
5 | CC(C)(O)CNC(=O)c1nc(Br)c(C(F)(F)F)cc1N | 101 | 7.11 | 28 (≈ 78.6 µM) | –
6 | COC(=O)c1cc(-c2ncco2)c(C(F)(F)F)cc1N | 92 | 6.62 | 36 (≈ 126 µM) | –
7 | O=c1c(-c2ccc(O)cc2)coc2cc(O)cc(O)c12 | 88 | – | – | Activity [4]: 138%; Activity [5]: 83%; Activity [6]: 54%
8 | CCc1nc(C(=O)NCC(C)(O)C(F)(F)F)c(N)cc1C(F)(F)F (stereo in doubt; 28b) [listing 1 of 2 here] | 101 | – | – | –
9 | COC(=O)c1cc(-c2ccco2)c(C(F)(F)F)cc1N | 93 | 7.11 | < 1 | pEC50 [7]: 6.04; pEC50 [8]: 6.74; bioavailability [9]: 15%; fraction unbound at 4 h, 5 µM [10]: 0.005; Vd [11]: 0.4 L/kg; Activity [4]: 206%; pEC50 [12]: 4.52; Activity [5]: 154%; clearance [13]: 30 mL/min/kg; MRT [14]: 0.2 h; Activity [6]: 100%
10 | Cc1nc(C(=O)NCC(C)(O)C(F)(F)F)c(N)cc1C(F)(F)F (racemic) | 99 | 6.62 | – | –
11 | CNC(=O)c1nc(Br)c(C(F)(F)F)cc1N | 97 | 6.60 | – | –
12 | CCc1nc(C(=O)NCC(C)(O)C(F)(F)F)c(N)cc1C(F)(F)F (stereo in doubt; 28b) [listing 2 of 2 here] | – | 7.37 | – | –
13 | COC(=O)c1ccccc1N [METHYL ANTHRANILATE] | – | 4.52 | – | –
14 | C[C@](O)(CNC(=O)c1nc(C(F)(F)F)c(C(F)(F)F)cc1N)C(F)(F)F | 113 | 8.05 | 82 (≈ 205 µM) | Vd [15]: 6.4 L/kg; fraction unbound at 4 h, 5 µM [10]: 0.019; fCmax [16]: 11 nM; clearance [17]: 15 mL/min/kg; PPB [18]: 98.6%; bioavailability [19]: 75%; MRT [20]: 7.2 h; Cmax [21]: 595 nM
15 | CN(C)C(=O)c1cc(-c2ccco2)c(C(F)(F)F)cc1N | – | 4.52 | – | Activity [1]: 37%
16 | CN(C)c1nc(C(=O)NCC(C)(O)C(F)(F)F)c(N)cc1C(F)(F)F (stereo in doubt; 31b) | 93 | – | – | –
17 | CNC(=O)c1cc(-c2ccco2)c(C(F)(F)F)cc1N | 83 | 5.73 | 13 (≈ 45.7 µM) | –
18 | Nc1cc(C(F)(F)F)c(Br)nc1C(=O)NC[C@H](O)C(F)(F)F | 102 | 7.64 | 290 (≈ 732 µM) | –
19 | CC(O)(CNC(=O)c1ncc(C(F)(F)F)cc1N)C(F)(F)F (racemic) | 78 | 6.64 | – | –
